Data as given in article doi:10.1101/2024.06.25.600616, “Presynaptic GABAA receptors control integration of nicotinic input onto dopaminergic axons in the striatum” (bioRxiv, 2024).

System: T1, nicotinic acetylcholine receptors (nAChRs) on dopaminergic axons (likely beta2 subunit-containing)
T1 construct: gene Chrnb2; native receptor on dopaminergic axons; with α4 and/or α6 nAChR subunits (native heteromer, not resolved)
Test: whole-cell axonal recording of ACh-puff depolarizations; IC50 from jGCaMP8s nicotinic component in striatal slices
Parameters: species or system Mus musculus

With `C=C(C)[C@@H]1[C@H]2OC(=O)[C@@H]1[C@]1(O)C[C@H]3OC34C(=O)O[C@H]2[C@@]41C.CC(C)(O)[C@@H]1[C@H]2OC(=O)[C@@H]1[C@]1(O)C[C@H]3OC34C(=O)O[C@H]2[C@@]41C` (stereo partly shown) [picrotoxin] the IC50 was 108 µM.
